Test results: article PMC6896740, “Safety, tolerability, pharmacokinetics, and pharmacodynamics of PF-06650833, a selective interleukin-1 receptor-associated kinase 4 (IRAK4) inhibitor, in single and multiple ascending dose randomized phase 1 studies in healthy subjects” (Arthritis Research & Therapy, 2019)
Where two headings read alike, the source gives them in different places.

Experiment: Study 2 (MAD) plasma and urine pharmacokinetics
Type: in vivo, human
Conditions: for AUC: read-out: AUCtau, geometric mean (%CV); for Cmax: read-out: Cmax, geometric mean (%CV); for Tmax: read-out: Tmax, median (range)
Procedure: Subjects were enrolled sequentially into seven cohorts. Within each cohort, eight subjects and two subjects were randomized to receive PF-06650833 and placebo, respectively. Doses for all cohorts were administered after a standard (not high-fat) meal. Multiple dosing regimens (once daily [QD] 24 h apart, twice daily [BID] 12 h apart, three times per day [TID] 8 h apart, and four times per day [QID] 6 h apart) were used to provide required total daily doses. In the final dosing scheme, multiple oral doses of PF-06650833 IR suspension formulations at 25, 100, 250, and 750 mg BID and 1000 mg QID were administered in cohorts 1–5. PF-06650833 IR 330 mg TID (cohort 6) and an MR tablet at a dose of 300 mg QD (cohort 7) were also evaluated (see Fig. 1b for final dosing scheme).
For both studies, samples of blood (and urine in study 2) were taken for evaluation of PK/PD parameters (see Additional file 1: Supplemental Methods). PK samples were obtained at the nominal time relative to dosing (± 10%). Plasma and urine samples were analyzed using validated, sensitive, and specific liquid chromatography tandem mass spectrometric methods (at Pfizer Inc., Groton, CT, USA, for study 1 and at Worldwide Pharmacokinetics, Dynamics and Metabolism, Cambridge, MA, USA, for study 2). The lower limit of quantification for PF-06650833 in plasma was 0.0500 ng/mL. The lower limit of quantification for PF-06650833 in urine was 1.00 ng/mL. Serum samples were also analyzed for hsCRP, and plasma samples were analyzed for 4β-hydroxycholesterol and cholesterol.
PK parameters were calculated using non-compartmental analysis of concentration-time data. For study 1 only, data from cohort 1 (period 4 [IR 30 mg] versus period 5 [IR 30 mg + food]) and cohort 3 (period 2 [MR 30 mg] versus period 3 [MR 30 mg + food]) were used to estimate the effect of food intake. Cmax and AUC were calculated for each subject and treatment, with and without food, after which a within-subject difference could be found between fed (high-fat meal) and fasted doses. Analysis of covariance was used to model these within-subject differences and to calculate 95% confidence intervals (CIs) for the differences for each dose (IR 30 mg and MR 30 mg). For study 2 only, the amounts of PF-06650833 in urine and renal clearance were listed and summarized descriptively. As part of the routine safety laboratory monitoring, the presence of any atypical crystals in urine specimens was semi-quantitatively assessed microscopically by typical histopathologic methods and scored as numbers of crystals per high power field (hpf); higher abundance (moderate or many) was defined as ≥ 15/hpf. No formal interim analyses were conducted.
22 In Study 2, pre-dose blood samples were collected for PK analysis on days 1, 2, 4, 7, 10, and
23 14. Post-dose samples were collected for PK analysis on days 1 and 14 at 0.5, 1, 2, 4, 6, 8, 10,
24 12, and 16 hours post-dose; on day 7 at 1, 2, 4, 6, 8, and 12 hours post-dose; and on days 15,
27 hours post-dose. […]
32 Blood samples (2 mL, to obtain ≥0.5 mL plasma) were collected in K2EDTA tubes
33 (dipotassium ethylenediaminetetraacetic acid) and centrifuged at ~1700 x g for 10 minutes at
34 4 °C, with plasma then stored in polypropylene tubes at -70 °C within 1 hour of collection.
35 Plasma samples were analyzed using a validated, sensitive , and specific liquid
36 chromatography tandem mass spectrometric method (LC -MS; at Pfizer Inc, Groton, CT, USA
37 for Study 1; and at Worldwide Pharmaco kinetics, Dynamics, and Metabolism, Cambridge,
38 MA, USA for Study 2). The lower limit of quantification (LLOQ) for PF-06650833 in plasma
39 was 0.0500 ng/mL. Between-day assay accuracy values were also calculated (not shown).
40 In Study 2 only, urine samples we re collected in aliquots pre-dose. Cumulative 0–12-hour
41 and 12–24-hour urine samples were also collected as follows: from day 1 after morning
42 dosing to day 2 before morning dosing (and before breakfast) for cohorts 6 –8 only; and from […]

[1] = IR 25 mg BID, day 14, fed (standard meal)
[2] = IR 100 mg BID, day 14, fed (standard meal)
[3] = IR 250 mg BID, day 14, fed (standard meal)
[4] = IR 330 mg TID, day 14, fed (standard meal)
[5] = IR 750 mg BID, day 14, fed (standard meal)
[6] = MR 300 mg QD, day 14, fed (standard meal)
[7] = human, plasma, oral, 25 mg, IR 25 mg BID, day 1, fed (standard meal)
[8] = human, plasma, oral, 25 mg, IR 25 mg BID, day 14, fed (standard meal)
[9] = human, plasma, oral, 100 mg, IR 100 mg BID, day 1, fed (standard meal)
[10] = human, plasma, oral, 100 mg, IR 100 mg BID, day 14, fed (standard meal)
[11] = human, plasma, oral, 250 mg, IR 250 mg BID, day 1, fed (standard meal)
[12] = human, plasma, oral, 250 mg, IR 250 mg BID, day 14, fed (standard meal)
[13] = human, plasma, oral, 300 mg, MR 300 mg QD, day 1, fed (standard meal)
[14] = human, plasma, oral, 300 mg, MR 300 mg QD, day 14, fed (standard meal)
[15] = human, plasma, oral, 330 mg, IR 330 mg TID, day 1, fed (standard meal)
[16] = human, plasma, oral, 330 mg, IR 330 mg TID, day 14, fed (standard meal)
[17] = human, plasma, oral, 750 mg, IR 750 mg BID, day 1, fed (standard meal)
[18] = human, plasma, oral, 750 mg, IR 750 mg BID, day 14, fed (standard meal)
[19] = human, plasma, oral, 1000 mg, IR 1000 mg QID, day 1, fed (standard meal)

With `CC[C@@H]1[C@H](F)C(=O)N[C@@H]1COc1nccc2cc(C(N)=O)c(OC)cc12` [PF-06650833, 1-{[(2S,3S,4S)-3-Ethyl-4-fluoro-5-oxopyrrolidin-2-yl]methoxy}-7-methoxyisoquinoline-6-carboxamide] the “Tmax, median (range)” value (IR 25 mg BID, day 1, fed (standard meal)) was 2.03 (1.00–4.00) h, the “Ae24% (drug recovered unchanged in urine up to 24 h), geometric mean (%CV)” value [1] was 0.7288 (27) % and the “CL/F, geometric mean (%CV)” value [1] was 122.4 (26) L/h. For the same molecule, the “Cav, geometric mean (%CV)” value [1] was 17.03 (26) ng/mL, the “Cmin, geometric mean (%CV)” value [1] was 4.064 (46) ng/mL and the “PTF (peak-trough fluctuation), geometric mean (%CV)” value (from here on “PTF … (%CV)”) [1] was 1.868 (21). The “Rac (observed accumulation ratio), geometric mean (%CV)” value [1] was 1.250 (19), the “Ae24% (drug recovered unchanged in urine up to 24 h), geometric mean (%CV)” value [2] was 0.9414 (29) % and the “CL/F, geometric mean (%CV)” value [2] was 128.9 (16) L/h. For the same molecule, the “Cav, geometric mean (%CV)” value [2] was 64.72 (16) ng/mL, the “Cmin, geometric mean (%CV)” value [2] was 14.13 (40) ng/mL and the “PTF … (%CV)” value [2] was 1.740 (16). The “Rac (observed accumulation ratio), geometric mean (%CV)” value [2] was 1.373 (23), the “Ae24% (drug recovered unchanged in urine up to 24 h), geometric mean (%CV)” value [3] was 0.4822 (53) % and the “CL/F, geometric mean (%CV)” value [3] was 183.7 (39) L/h. The “Cav, geometric mean (%CV)” value [3] was 113.3 (39) ng/mL, the “Cmin, geometric mean (%CV)” value [3] was 20.07 (76) ng/mL and the “PTF … (%CV)” value [3] was 1.911 (14). For the same molecule, the “Rac (observed accumulation ratio), geometric mean (%CV)” value [3] was 1.009 (13), the “Ae24% (drug recovered unchanged in urine up to 24 h), geometric mean (%CV)” value [4] was 0.6372 (34) % and the “CL/F, geometric mean (%CV)” value [4] was 206.1 (28) L/h. The “Cav, geometric mean (%CV)” value [4] was 200.1 (28) ng/mL, the “Cmin, geometric mean (%CV)” value [4] was 51.48 (68) ng/mL and the “PTF … (%CV)” value [4] was 1.307 (18). The “Rac (observed accumulation ratio), geometric mean (%CV)” value [4] was 1.068 (26), the “Ae24% (drug recovered unchanged in urine up to 24 h), geometric mean (%CV)” value [5] was 0.4885 (24) % and the “CL/F, geometric mean (%CV)” value [5] was 302.9 (24) L/h. The “CLr (renal clearance), geometric mean (%CV)” value [5] was 23.14 (19) mL/min, the “Cav, geometric mean (%CV)” value [5] was 206.3 (24) ng/mL and the “Cmin, geometric mean (%CV)” value [5] was 33.07 (50) ng/mL. For the same molecule, the “PTF … (%CV)” value [5] was 1.868 (12), the “Rac (observed accumulation ratio), geometric mean (%CV)” value [5] was 0.9377 (32) and the “Ae24% (drug recovered unchanged in urine up to 24 h), geometric mean (%CV)” value [6] was 0.300 (70) %. The “CL/F, geometric mean (%CV)” value [6] was 308.0 (65) L/h, the “Cav, geometric mean (%CV)” value [6] was 40.62 (65) ng/mL and the “Cmin, geometric mean (%CV)” value [6] was 6.471 (55) ng/mL. For the same molecule, the “PTF … (%CV)” value [6] was 3.383 (37), the “Rac (observed accumulation ratio), geometric mean (%CV)” value [6] was 0.8985 (24) and the “Dose recovered unchanged in urine” value (all dose groups) was “Less than 1%”. The “Steady state reached by” value (all dose groups, based on Cmin) was at most 4 days, the AUC [7] was 164 ng·h/mL and the Cmax [7] was 30 ng/mL. For the same molecule, the Tmax [7] was 2 h, the AUC [8] was 204 ng·h/mL and the Cmax [8] was 36.2 ng/mL. The Tmax [8] was 2 h, the AUC [9] was 566 ng·h/mL and the Cmax [9] was 102 ng/mL. The Tmax [9] was 2.03 h, the AUC [10] was 776 ng·h/mL and the Cmax [10] was 128 ng/mL. The Tmax [10] was 2.02 h, the AUC [11] was 1350 ng·h/mL and the Cmax [11] was 226 ng/mL. The Tmax [11] was 4 h, the AUC [12] was 1360 ng·h/mL and the Cmax [12] was 238 ng/mL. For the same molecule, the Tmax [12] was 2.02 h, the AUC [13] was 1150 ng·h/mL and the Cmax [13] was 149 ng/mL. It also gave a Tmax [13] of 4 h, an AUC [14] of 975 ng·h/mL and a Cmax [14] of 147 ng/mL. For the same molecule, the Tmax [14] was 4 h, the AUC [15] was 1500 ng·h/mL and the Cmax [15] was 309 ng/mL. It also gave a Tmax [15] of 2.03 h, an AUC [16] of 1600 ng·h/mL and a Cmax [16] of 318 ng/mL. It also gave a Tmax [16] of 2 h, an AUC [17] of 2580 ng·h/mL and a Cmax [17] of 470 ng/mL. The Tmax [17] was 3.12 h, the AUC [18] was 2480 ng·h/mL and the Cmax [18] was 421 ng/mL. The Tmax [18] was 2 h, the AUC [19] was 2010 ng·h/mL and the Cmax [19] was 517 ng/mL. It also gave a Tmax [19] of 4 h, a Tmax at 1 day (human, plasma, oral, day 1, range across IR 25 to 1000 mg, standard meal, read-out: Median Tmax) of 2 to 4 h and a Tmax at 14 day (human, plasma, oral, day 14, IR formulations, standard meal, read-out: Median Tmax) of 2 h. It also gave a half-life (human, plasma, oral, range for IR 750 mg BID, IR 330 mg TID, MR 300 mg QD, read-out: Mean half-life at steady state) of 25.4 to 31.4 h, a Vd/F (human, plasma, oral, IR 25 mg BID, day 14, fed (standard meal), read-out: Vz/F, geometric mean (%CV)) of 9650 L and a Vd/F (human, plasma, oral, IR 100 mg BID, day 14, fed (standard meal), read-out: Vz/F, geometric mean (%CV)) of 8060 L. The Vd/F (human, plasma, oral, IR 250 mg BID, day 14, fed (standard meal), read-out: Vz/F, geometric mean (%CV)) was 10200 L, the Vd/F (human, plasma, oral, IR 330 mg TID, day 14, fed (standard meal), read-out: Vz/F, geometric mean (%CV)) was 10100 L and the Vd/F (human, plasma, oral, IR 750 mg BID, day 14, fed (standard meal), read-out: Vz/F, geometric mean (%CV)) was 13200 L. It also gave a Vd/F at 14 day (human, plasma, oral, MR 300 mg QD, day 14, fed (standard meal), read-out: Vz/F, geometric mean (%CV)) of 11600 L, a Vd at 14 day (human, plasma, oral, range across all dosages, day 14, read-out: Mean volume of distribution) of 8060 to 13200 L and a CL renal (human, urine and plasma, oral, 300 mg, MR 300 mg QD, day 14, fed (standard meal), read-out: CLr (renal clearance), geometric mean (%CV)) of 15.4 mL/min. It also gave a CL renal (human, urine and plasma, oral, 330 mg, IR 330 mg TID, day 14, fed (standard meal), read-out: CLr (renal clearance), geometric mean (%CV)) of 18.8 mL/min, a CL renal (human, urine and plasma, oral, range for IR < 750 mg and MR 300 mg, read-out: Renal clearance) of 14 to 23 mL/min and a CL renal at 14 day (human, urine, oral, 25 mg, IR 25 mg BID, day 14, fed (standard meal), read-out: CLr (renal clearance), geometric mean (%CV)) of 13.6 mL/min. For the same molecule, the CL renal at 14 day (human, urine, oral, 100 mg, IR 100 mg BID, day 14, fed (standard meal), read-out: CLr (renal clearance), geometric mean (%CV)) was 18.5 mL/min, the CL renal at 14 day (human, urine, oral, 250 mg, IR 250 mg BID, day 14, fed (standard meal), read-out: CLr (renal clearance), geometric mean (%CV)) was 13.9 mL/min and the CL renal (human, urine, oral, 750 mg, IR 750 mg BID, day 14, fed (standard meal), read-out: CLr (renal clearance), geometric mean (%CV)) was 23 mL/min. The CL renal (human, urine, oral, range for IR 25 mg BID, IR 330 mg TID and MR 300 mg QD, read-out: Renal clearance) was 14 to 19 mL/min.
